Experimental data reported in ChEMBL document CHEMBL3045391, “Synthesis and biological evaluation of 5,7-diaryl-4,4-dimethyl-4,5,6,7-tetrahydropyridino[3,4-d]-1,2,3-thiadiazoles” (2007).
Calls of active or inactive are those of the source. The rule behind the calls is not given here.

Assays:
Mucor [1] = assay: Antifungal activity against Mucor at 500 ppm after 72 to 96 hr by disk diffusion method; format: functional; settings: read-out: IZ
Aspergillus flavus [2] = assay: Antifungal activity against Aspergillus flavus at 500 ppm after 72 to 96 hr by disk diffusion method; format: functional; settings: read-out: IZ
Nannizzia gypsea [3] = assay: Antifungal activity against Microsporum gypseum at 200 ppm after 72 to 96 hr by disk diffusion method; format: functional; settings: read-out: IZ
Salmonella typhi [4] = assay: Antibacterial activity against Salmonella enterica subsp. enterica serovar Typhi at 200 ppm after 24 hr by disk diffusion method; format: functional; settings: read-out: IZ
Vibrio cholerae [5] = assay: Antibacterial activity against Vibrio cholerae at 500 ppm after 24 hr by disk diffusion method; format: functional; settings: read-out: IZ
Streptococcus [6] = assay: Antibacterial activity against beta-hemolytic Streptococcus at 200 ppm after 24 hr by disk diffusion method; format: functional; settings: read-out: IZ
Pseudomonas [7] = assay: Antibacterial activity against Pseudomonas at 100 ppm after 24 hr by disk diffusion method; format: functional
Aspergillus flavus [8] = assay: Antifungal activity against Aspergillus flavus at 100 ppm after 72 to 96 hr by disk diffusion method; format: functional; settings: read-out: IZ
Salmonella typhi [9] = assay: Antibacterial activity against Salmonella enterica subsp. enterica serovar Typhi at 100 ppm after 24 hr by disk diffusion method; format: functional; settings: read-out: IZ
Pseudomonas [10] = assay: Antibacterial activity against Pseudomonas at 500 ppm after 24 hr by disk diffusion method; format: functional; settings: read-out: IZ
Streptococcus [11] = assay: Antibacterial activity against beta-hemolytic Streptococcus at 500 ppm after 24 hr by disk diffusion method; format: functional; settings: read-out: IZ
Rhizopus [12] = assay: Antifungal activity against Rhizopus at 200 ppm after 72 to 96 hr by disk diffusion method; format: functional; settings: read-out: IZ
Klebsiella pneumoniae [13] = assay: Antibacterial activity against Klebsiella pneumoniae at 200 ppm after 24 hr by disk diffusion method; format: functional; settings: read-out: IZ
Escherichia coli [14] = assay: Antibacterial activity against Escherichia coli at 500 ppm after 24 hr by disk diffusion method; format: functional; settings: read-out: IZ
Shigella flexneri [15] = assay: Antibacterial activity against Shigella flexneri at 200 ppm after 24 hr by disk diffusion method; format: functional; settings: read-out: IZ
Vibrio cholerae [16] = assay: Antibacterial activity against Vibrio cholerae at 200 ppm after 24 hr by disk diffusion method; format: functional; settings: read-out: IZ
Nannizzia gypsea [17] = assay: Antifungal activity against Microsporum gypseum at 100 ppm after 72 to 96 hr by disk diffusion method; format: functional; settings: read-out: IZ
Aspergillus flavus [18] = assay: Antifungal activity against Aspergillus flavus at 200 ppm after 72 to 96 hr by disk diffusion method; format: functional; settings: read-out: IZ
Pseudomonas [19] = assay: Antibacterial activity against Pseudomonas at 200 ppm after 24 hr by disk diffusion method; format: functional; settings: read-out: IZ
Rhizopus [20] = assay: Antifungal activity against Rhizopus at 100 ppm after 72 to 96 hr by disk diffusion method; format: functional; settings: for zone of inhibition at 100 ppm: read-out: IZ
Mucor [21] = assay: Antifungal activity against Mucor at 200 ppm after 72 to 96 hr by disk diffusion method; format: functional; settings: read-out: IZ
Shigella flexneri [22] = assay: Antibacterial activity against Shigella flexneri at 500 ppm after 24 hr by disk diffusion method; format: functional; settings: read-out: IZ
Staphylococcus aureus [23] = assay: Antibacterial activity against Staphylococcus aureus at 500 ppm after 24 hr by disk diffusion method; format: functional; settings: read-out: IZ
Rhizopus [24] = assay: Antifungal activity against Rhizopus at 500 ppm after 72 to 96 hr by disk diffusion method; format: functional; settings: read-out: IZ
Salmonella typhi [25] = assay: Antibacterial activity against Salmonella enterica subsp. enterica serovar Typhi at 500 ppm after 24 hr by disk diffusion method; format: functional; settings: read-out: IZ
Staphylococcus aureus [26] = assay: Antibacterial activity against Staphylococcus aureus at 200 ppm after 24 hr by disk diffusion method; format: functional; settings: read-out: IZ
Streptococcus [27] = assay: Antibacterial activity against beta-hemolytic Streptococcus at 100 ppm after 24 hr by disk diffusion method; format: functional, organism-based
Klebsiella pneumoniae [28] = assay: Antibacterial activity against Klebsiella pneumoniae at 100 ppm after 24 hr by disk diffusion method; format: functional; settings: read-out: IZ
Vibrio cholerae [29] = assay: Antibacterial activity against Vibrio cholerae at 100 ppm after 24 hr by disk diffusion method; format: functional; settings: read-out: IZ
Escherichia coli [30] = assay: Antibacterial activity against Escherichia coli at 200 ppm after 24 hr by disk diffusion method; format: functional; settings: read-out: IZ
Shigella flexneri [31] = assay: Antibacterial activity against Shigella flexneri at 100 ppm after 24 hr by disk diffusion method; format: functional; settings: for zone of inhibition at 100 ppm: read-out: IZ
Escherichia coli [32] = assay: Antibacterial activity against Escherichia coli at 100 ppm after 24 hr by disk diffusion method; format: functional, organism-based
Nannizzia gypsea [33] = assay: Antifungal activity against Microsporum gypseum at 500 ppm after 72 to 96 hr by disk diffusion method; format: functional; settings: read-out: IZ
Klebsiella pneumoniae [34] = assay: Antibacterial activity against Klebsiella pneumoniae at 500 ppm after 24 hr by disk diffusion method; format: functional; settings: read-out: IZ
Staphylococcus aureus [35] = assay: Antibacterial activity against Staphylococcus aureus at 100 ppm after 24 hr by disk diffusion method; format: functional
Mucor [36] = assay: Antifungal activity against Mucor at 100 ppm after 72 to 96 hr by disk diffusion method; format: functional
Nannizzia gypsea [37] = assay: Antifungal activity against Microsporum gypseum at 100 units/disc after 72 to 96 hr by disc diffusion method; format: functional
Aspergillus flavus [38] = assay: Antifungal activity against Aspergillus flavus at 100 units/disk after 72 to 96 hr by disk diffusion method; format: functional
Rhizopus [39] = assay: Antifungal activity against Rhizopus at 100 units/disk after 72 to 96 hr by disk diffusion method; format: functional
Mucor [40] = assay: Antifungal activity against Mucor at 100 units/disk after 72 to 96 hr by disk diffusion method; format: functional

Row | Compound | zone of inhibition at 500 ppm (Mucor [1]) [mm] | zone of inhibition at 500 ppm (Aspergillus flavus [2]) [mm] | zone of inhibition at 200 ppm (Nannizzia gypsea [3]) [mm] | zone of inhibition at 200 ppm (Salmonella typhi [4]) [mm] | zone of inhibition at 500 ppm (Vibrio cholerae [5]) [mm] | zone of inhibition at 200 ppm (Streptococcus [6]) [mm] | zone of inhibition at 100 ppm (Aspergillus flavus [8]) [mm] | zone of inhibition at 100 ppm (Salmonella typhi [9]) [mm] | zone of inhibition at 500 ppm (Pseudomonas [10]) [mm] | zone of inhibition at 500 ppm (Streptococcus [11]) [mm] | zone of inhibition at 200 ppm (Rhizopus [12]) [mm] | zone of inhibition at 200 ppm (Klebsiella pneumoniae [13]) [mm] | zone of inhibition at 500 ppm (Escherichia coli [14]) [mm] | zone of inhibition at 200 ppm (Shigella flexneri [15]) [mm] | zone of inhibition at 200 ppm (Vibrio cholerae [16]) [mm] | zone of inhibition at 100 ppm (Nannizzia gypsea [17]) [mm] | zone of inhibition at 200 ppm (Aspergillus flavus [18]) [mm] | zone of inhibition at 200 ppm (Pseudomonas [19]) [mm] | zone of inhibition at 200 ppm (Mucor [21]) [mm] | zone of inhibition at 500 ppm (Shigella flexneri [22]) [mm] | further results
1 | CC1(C)c2nnsc2C(c2ccc(F)cc2)NC1c1ccc(F)cc1 (configuration not stated) | 17 | 17 | 22 | 12 | 17 | 17 | 12 | 12 | 17 | 22 | 22 | 17 | 17 | 17 | 17 | 17 | 17 | 17 | 17 | 17 | inhibition zone (IZ) (Pseudomonas [7]): inactive; zone of inhibition at 100 ppm (Rhizopus [20]): 12 mm; zone of inhibition at 500 ppm (Staphylococcus aureus [23]): 30 mm; zone of inhibition at 500 ppm (Rhizopus [24]): 22 mm; zone of inhibition at 500 ppm (Salmonella typhi [25]): 12 mm; zone of inhibition at 200 ppm (Staphylococcus aureus [26]): 22 mm; inhibition zone (IZ) (Streptococcus [27]): inactive; zone of inhibition at 100 ppm (Klebsiella pneumoniae [28]): 17 mm; zone of inhibition at 100 ppm (Vibrio cholerae [29]): 12 mm; zone of inhibition at 200 ppm (Escherichia coli [30]): 17 mm; zone of inhibition at 100 ppm (Shigella flexneri [31]): 12 mm; inhibition zone (IZ) (Escherichia coli [32]): inactive; zone of inhibition at 500 ppm (Nannizzia gypsea [33]): 30 mm; zone of inhibition at 500 ppm (Klebsiella pneumoniae [34]): 22 mm; inhibition zone (IZ) (Staphylococcus aureus [35]): inactive; inhibition zone (IZ) (Mucor [36]): inactive
2 | CC1(C)c2nnsc2C(c2ccccc2)NC1c1ccccc1 (configuration not stated) | 17 | 17 | 17 | 12 | 17 | 12 | 12 | 12 | 12 | 22 | 17 | 17 | 12 | 12 | 12 | 12 | 12 | 12 | 12 | 17 | zone of inhibition at 100 ppm (Pseudomonas [7]; read-out: IZ): 12 mm; zone of inhibition at 100 ppm (Rhizopus [20]): 12 mm; zone of inhibition at 500 ppm (Staphylococcus aureus [23]): 22 mm; zone of inhibition at 500 ppm (Rhizopus [24]): 17 mm; zone of inhibition at 500 ppm (Salmonella typhi [25]): 12 mm; zone of inhibition at 200 ppm (Staphylococcus aureus [26]): 17 mm; inhibition zone (IZ) (Streptococcus [27]): inactive; zone of inhibition at 100 ppm (Klebsiella pneumoniae [28]): 12 mm; zone of inhibition at 100 ppm (Vibrio cholerae [29]): 12 mm; zone of inhibition at 200 ppm (Escherichia coli [30]): 12 mm; inhibition zone (IZ) (Shigella flexneri [31]): inactive; inhibition zone (IZ) (Escherichia coli [32]): inactive; zone of inhibition at 500 ppm (Nannizzia gypsea [33]): 30 mm; zone of inhibition at 500 ppm (Klebsiella pneumoniae [34]): 22 mm; inhibition zone (IZ) (Staphylococcus aureus [35]): inactive; inhibition zone (IZ) (Mucor [36]): inactive
3 | COc1ccc(C2NC(c3ccc(OC)cc3)C(C)(C)c3nnsc32)cc1 (configuration not stated) | 17 | 17 | 17 | 17 | 17 | 12 | 12 | 12 | 12 | 30 | 12 | 17 | 17 | 17 | 17 | 12 | 12 | 12 | 17 | 17 | inhibition zone (IZ) (Pseudomonas [7]): inactive; inhibition zone (IZ) (Rhizopus [20]): inactive; zone of inhibition at 500 ppm (Staphylococcus aureus [23]): 30 mm; zone of inhibition at 500 ppm (Rhizopus [24]): 22 mm; zone of inhibition at 500 ppm (Salmonella typhi [25]): 17 mm; zone of inhibition at 200 ppm (Staphylococcus aureus [26]): 22 mm; inhibition zone (IZ) (Streptococcus [27]): inactive; zone of inhibition at 100 ppm (Klebsiella pneumoniae [28]): 17 mm; zone of inhibition at 100 ppm (Vibrio cholerae [29]): 12 mm; zone of inhibition at 200 ppm (Escherichia coli [30]): 17 mm; zone of inhibition at 100 ppm (Shigella flexneri [31]): 12 mm; inhibition zone (IZ) (Escherichia coli [32]): inactive; zone of inhibition at 500 ppm (Nannizzia gypsea [33]): 30 mm; zone of inhibition at 500 ppm (Klebsiella pneumoniae [34]): 22 mm; zone of inhibition at 100 ppm (Staphylococcus aureus [35]; read-out: IZ): 12 mm; zone of inhibition at 100 ppm (Mucor [36]; read-out: IZ): 12 mm
4 | OC(Cn1cncn1)(Cn1cncn1)c1ccc(F)cc1F [FLUCONAZOLE] | – | – | – | – | – | – | – | – | – | – | – | – | – | – | – | – | – | – | – | – | inhibition zone (IZ) (Nannizzia gypsea [37]): 20 mm; inhibition zone (IZ) (Aspergillus flavus [38]): 20 mm; inhibition zone (IZ) (Rhizopus [39]): 20 mm; inhibition zone (IZ) (Mucor [40]): 20 mm
